{"source": "patent US8299214B2", "about": "(priority 2006, dated 2012)", "origin": "cited, not measured here", "molecular_target": "hemagglutinin (Influenza A virus, UniProt P03437)", "settings": "read-out: binding constant between hemagglutinin and free sialyl lactose (K0); evaluation by NMR, reported; cited from earlier work"}
{"smiles": "CC(=O)N[C@H]1[C@H]([C@H](O)[C@H](O)CO)O[C@@](O[C@H]2[C@@H](O)[C@@H](CO)O[C@@H](O[C@H]3[C@H](O)[C@@H](O)C(O)O[C@@H]3CO)[C@@H]2O)(C(=O)O)C[C@@H]1O", "note": "(stereo partly drawn) [α (2, 3)-sialyllactose]", "values": [{"measurement": "Kd", "result": 3.2, "unit": "mM"}]}
